In data set [1] the test system is β-catenin-TCF-mediated reporter transcription activity in Colo 205 cells. Kind of data set: Colo 205 reporter assay (TCF/LEF promoter-driven firefly luciferase). It is filed as cell-based. To be noted: Homo sapiens; Colo 205 TCF/LEF luciferase reporter, 5 hours after compound addition, 384 well; read-out: Colo205 IC50. For orientation: A reporter such as luciferase makes a cellular process visible.

In data set [2] the test system is XBP1(u)-luciferase splicing reporter in HepG2 hepatoma cells. The experiment in a line: HepG2 XBP1 reporter assay (XBP1(u)-Luc). It is filed as cell-based. The note with it: Homo sapiens, 6 hours after compound addition, Table 3, read-out: XBP1-luc HepG2 1 EC50.
Data set [3] relates to intracellular calcium flux in Colo-205 cells. Kind of data set: Calcium flux assay (FLIPR Calcium 5 Assay Kit, FLIPR3). To be noted: Homo sapiens, 0.6 h, calcium flux measured over 36 minutes, read-out: Colo 205 Calcium Flux assay 384w Boston Ca assay FLIPR3 Colo EC50. It is filed as cell-based. As to the method: Compounds described herein induced ER stress by causing intracellular calcium flux. Calcium flux was measured in Colo-205 cells using the FLIPR® Calcium 5 Assay Kit according to manufacturer's protocol (Molecular Devices, Cat. #R8186) on a FLIPR3 system (Molecular Devices). Calcium flux is measured over 36 minutes. The Colo-205 calcium flux assay data are summarized in Table 3: A<0.6 μM; 0.6 μM≤B<2.0 μM; 2.0 μM≤C<10.0 μM; D≥10.0 μM.
Background: A change in cytosolic calcium serves as a functional read-out for many receptors and channels.

Usually IC50 stands for the concentration that gives 50% inhibition. One may read the melting point as the temperature, or range, at which the solid turns liquid. In general, EC50 refers to the concentration at which the effect is half-maximal.

Each structure is given as a SMILES string.

In the case of `COc1ccc(Cl)c(C2CCCCCN2c2cc(C)nc(N)n2)c1` (racemic) [I-117, (+/−)-4-(2-(2-chloro-5-methoxyphenyl)azepan-1-yl)-6-methylpyrimidin-2-amine], the melting point lay in the range of 88 to 90 °C. Also, in data set [1], the IC50 is 0.3 to 1 µM.
The compound `COc1ccc(Cl)c(C2COCCCN2c2cc(C)nc(N)n2)c1` (racemic) [I-118, (+/−)-4-(3-(2-chloro-5-methoxyphenyl)-1,4-oxazepan-4-yl)-6-methylpyrimidin-2-amine] had a melting point of 220 °C. Besides, in data set [1], the IC50 lay in the range of 0.3 to 1 µM.
In turn, `Cc1cc(N2CCCOCC2c2cc(N3CCCC3=O)ccc2Cl)nc(N)n1` (racemic) [I-119, 1-(3-(4-(2-amino-6-methylpyrimidin-4-yl)-1,4-oxazepan-3-yl)-4-chlorophenyl)pyrrolidin-2-one] yielded a melting point of 138 to 140 °C. Besides, the IC50 in data set [1] was in the range of 0.3 to 1 µM.
In turn, `Cc1cc(N2CCCOCC2c2cc(C(O)C(F)(F)F)ccc2Cl)nc(N)n1` (racemic) [I-134, (+/−)-1-(3-(4-(2-amino-6-methylpyrimidin-4-yl)-1,4-oxazepan-3-yl)-4-chlorophenyl)-2,2,2-trifluoroethan-1-ol] yielded a melting point of 110 °C. Moreover, the concentration for half-maximal inhibition (IC50) in data set [1] fell in the range of 0.3 to 1 µM.
Regarding `Cc1cc(N2CCCOCC2c2cc(NC(=O)CN(C)C)ccc2Cl)nc(N)n1` (racemic) [I-168, (+/−)-N-[3-[4-(2-amino-6-methyl-pyrimidin-4-yl)-1,4-oxazepan-3-yl]-4-chloro-phenyl]-2-(dimethylamino)acetamide], the melting point lay in the range of 95 to 97 °C. In addition, the half-maximal inhibitory concentration (IC50) in data set [1] is 0.3 to 1 µM.
Compound `CCNc1cc(C2COCCCN2c2cc(C)nc(N)n2)c(Cl)cc1F` (racemic) [I-272, (+/−)-4-[3-[2-chloro-5-(ethylamino)-4-fluoro-phenyl]-1,4-oxazepan-4-yl]-6-methyl-pyrimidin-2-amine] gave a melting point of 180 °C. In data set [1], the IC50 fell in the range of 0.3 to 1 µM. Besides, the EC50 in data set [2] was in the range of 0.6 to 2 µM.
In the case of `Cc1cc(N2CCCOCC2c2ccc(NC(=O)C(F)F)cc2Cl)nc(N)n1` (racemic) [I-278, (+/−)-N-(4-(4-(2-amino-6-methylpyrimidin-4-yl)-1,4-oxazepan-3-yl)-3-chlorophenyl)-2,2-difluoroacetamide], the melting point was in the range of 188 to 190 °C. Also, the IC50 in data set [1] is less than 0.3 µM. For the same compound, the EC50 in data set [2] is less than 0.6 µM.
`Cc1cc(N2CCCOC[C@@H]2c2cc(NS(C)(=O)=O)ccc2Cl)nc(N)n1` (single isomer, unassigned) [I-161] displayed a melting point of 160 °C. Besides, the IC50 in data set [1] was less than 0.3 µM. The half-maximal effective concentration (EC50) in data set [2] is less than 0.6 µM.
Turning to `Cc1cc(N2CCCOC[C@@H]2c2ccc(Br)cc2Cl)nc(N)n1` (single isomer, unassigned) [I-201], the melting point was 100 to 102 °C. The half-maximal inhibitory concentration (IC50) in data set [1] was 0.3 to 1 µM. Also, the 50% effective concentration (EC50) in data set [3] is less than 0.6 µM. Further, the concentration for a half-maximal effect (EC50) in data set [2] was less than 0.6 µM.

The values are drawn from patent publication US11440907B1 (Merck Patent GmbH, priority 2018, dated 2022).
